Laboratory results from PubChem BioAssay AID180 (DTP/NCI, 2004).
Values joined by “and” are separate entries in the source; they are usually repeats but may differ in a detail not shown here. Identical values can stand only once.

Test system: BDF1 mice, Adenocarcinoma 755 s.c., tumor weight T/C
Experiment: NCI In Vivo Anticancer Drug Screen. Data for tumor model Adenocarcinoma 755 (subcutaneous) in B6D2F1 (BDF1) mice
Details: endpoint: mean tumor weight, higher = larger tumour
How it was run: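 Compound activity was tested in mice carrying transplanted tumors. Survival or tumor size was measured, and each value is the treated-group measurement divided by that of the vehicle-treated control group (T/C).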

Nc1c(Br)cc2c(c1Br)Cc1cc(Br)ccc1-2
T/C (dose: 3.75 mg/kg/injection, schedule: Q#A X022 (ip), vehicle: saline): 77 % of control
T/C (dose: 7.5 mg/kg/injection, schedule: Q#A X022 (ip), vehicle: saline): 50 % of control
T/C (dose: 15.0 mg/kg/injection, schedule: Q01DX011 (im), vehicle: saline): 46 % of control
T/C (dose: 15.0 mg/kg/injection, schedule: Q01DX011 (sc), vehicle: saline): 58 % of control
T/C (dose: 15.0 mg/kg/injection, schedule: Q#A X022 (ip), vehicle: saline): 40 % of control
T/C (dose: 15.5 mg/kg/injection, schedule: Q01DX011 (ip), vehicle: saline): 74 % of control
T/C (dose: 21.8 mg/kg/injection, schedule: Q01DX011 (ip), vehicle: saline): 59 % of control and 69 % of control
T/C (dose: 30.0 mg/kg/injection, schedule: Q01DX011 (im), vehicle: saline): 48 % of control
T/C (dose: 30.0 mg/kg/injection, schedule: Q01DX011 (sc), vehicle: saline): 52 % of control
T/C (dose: 30.0 mg/kg/injection, schedule: Q#A X022 (ip), vehicle: saline): 40 % of control
T/C (dose: 31.2 mg/kg/injection, schedule: Q01DX011 (ip), vehicle: saline): 75 % of control
T/C (dose: 43.7 mg/kg/injection, schedule: Q01DX011 (ip), vehicle: saline): 18 % of control and 36 % of control
T/C (dose: 45.0 mg/kg/injection, schedule: Q03DX004 (ip), vehicle: saline): 67 % of control
T/C (dose: 60.0 mg/kg/injection, schedule: Q01DX011 (im), vehicle: saline): 40 % of control
T/C (dose: 60.0 mg/kg/injection, schedule: Q01DX011 (ip), vehicle: saline): 24 % of control
T/C (dose: 60.0 mg/kg/injection, schedule: Q01DX011 (sc), vehicle: saline): 41 % of control
T/C (dose: 60.0 mg/kg/injection, schedule: Q#A X022 (ip), vehicle: saline): 28 % of control
T/C (dose: 62.5 mg/kg/injection, schedule: Q01DX011 (ip), vehicle: saline): 63 % of control
T/C (dose: 87.5 mg/kg/injection, schedule: Q01DX011 (ip), vehicle: saline): 33 % of control and 35 % of control
T/C (dose: 90.0 mg/kg/injection, schedule: Q03DX004 (ip), vehicle: saline): 66 % of control
T/C (dose: 100.0 mg/kg/injection, schedule: Q01DX001 (ip), vehicle: saline): 80 % of control and 87 % of control
T/C (dose: 100.0 mg/kg/injection, schedule: Q07DX002 (ip), vehicle: saline): 78 % of control
T/C (dose: 120.0 mg/kg/injection, schedule: Q01DX001 (ip), vehicle: saline): 56 % of control
T/C (dose: 120.0 mg/kg/injection, schedule: Q01DX011 (im), vehicle: saline): 45 % of control
T/C (dose: 120.0 mg/kg/injection, schedule: Q01DX011 (ip), vehicle: saline): 17 % of control
T/C (dose: 120.0 mg/kg/injection, schedule: Q01DX011 (oral), vehicle: saline): 26 % of control
T/C (dose: 120.0 mg/kg/injection, schedule: Q01DX011 (sc), vehicle: saline): 46 % of control
T/C (dose: 120.0 mg/kg/injection, schedule: Q#A X022 (ip), vehicle: saline): 34 % of control
T/C (dose: 125.0 mg/kg/injection, schedule: Q01DX011 (ip), vehicle: saline): 36 % of control
T/C (dose: 125.0 mg/kg/injection, schedule: Q01DX011 (oral), vehicle: saline): 74 % of control
T/C (dose: 175.0 mg/kg/injection, schedule: Q01DX011 (ip), vehicle: other): 33 % of control
T/C (dose: 175.0 mg/kg/injection, schedule: Q01DX011 (ip), vehicle: saline): 27 % of control and 33 % of control
T/C (dose: 180.0 mg/kg/injection, schedule: Q03DX004 (ip), vehicle: saline): 58 % of control
T/C (dose: 200.0 mg/kg/injection, schedule: Q01DX001 (ip), vehicle: saline): 74 % of control and 75 % of control
T/C (dose: 200.0 mg/kg/injection, schedule: Q07DX002 (ip), vehicle: saline): 71 % of control
T/C (dose: 240.0 mg/kg/injection, schedule: Q01DX001 (ip), vehicle: saline): 44 % of control
T/C (dose: 240.0 mg/kg/injection, schedule: Q01DX011 (ip), vehicle: saline): 16 % of control
T/C (dose: 240.0 mg/kg/injection, schedule: Q01DX011 (oral), vehicle: saline): 23 % of control
T/C (dose: 250.0 mg/kg/injection, schedule: Q01DX011 (ip), vehicle: saline): 52 % of control
T/C (dose: 250.0 mg/kg/injection, schedule: Q01DX011 (oral), vehicle: saline): 64 % of control
T/C (dose: 350.0 mg/kg/injection, schedule: Q01DX011 (ip), vehicle: other): 16 % of control
T/C (dose: 360.0 mg/kg/injection, schedule: Q03DX004 (ip), vehicle: saline): 54 % of control
T/C (dose: 400.0 mg/kg/injection, schedule: Q01DX001 (ip), vehicle: saline): 54 % of control and 65 % of control
T/C (dose: 400.0 mg/kg/injection, schedule: Q07DX002 (ip), vehicle: saline): 51 % of control
T/C (dose: 480.0 mg/kg/injection, schedule: Q01DX001 (ip), vehicle: saline): 26 % of control
T/C (dose: 480.0 mg/kg/injection, schedule: Q01DX011 (im), vehicle: saline): 33 % of control
T/C (dose: 480.0 mg/kg/injection, schedule: Q01DX011 (ip), vehicle: saline): 16 % of control
T/C (dose: 480.0 mg/kg/injection, schedule: Q01DX011 (oral), vehicle: saline): 24 % of control
T/C (dose: 480.0 mg/kg/injection, schedule: Q01DX011 (sc), vehicle: saline): 30 % of control
T/C (dose: 500.0 mg/kg/injection, schedule: Q01DX011 (ip), vehicle: saline): 58 % of control
T/C (dose: 500.0 mg/kg/injection, schedule: Q01DX011 (oral), vehicle: saline): 57 % of control
T/C (dose: 700.0 mg/kg/injection, schedule: Q01DX011 (ip), vehicle: other): 34 % of control
T/C (dose: 720.0 mg/kg/injection, schedule: Q03DX004 (ip), vehicle: saline): 24 % of control
T/C (dose: 800.0 mg/kg/injection, schedule: Q01DX001 (ip), vehicle: saline): 60 % of control and 80 % of control
T/C (dose: 800.0 mg/kg/injection, schedule: Q07DX002 (ip), vehicle: saline): 51 % of control
T/C (dose: 960.0 mg/kg/injection, schedule: Q01DX001 (ip), vehicle: saline): 31 % of control
T/C (dose: 960.0 mg/kg/injection, schedule: Q01DX011 (im), vehicle: saline): 29 % of control
T/C (dose: 960.0 mg/kg/injection, schedule: Q01DX011 (oral), vehicle: saline): 25 % of control
T/C (dose: 960.0 mg/kg/injection, schedule: Q01DX011 (sc), vehicle: saline): 25 % of control
T/C (dose: 1000.0 mg/kg/injection, schedule: Q01DX011 (ip), vehicle: saline): 47 % of control
T/C (dose: 1000.0 mg/kg/injection, schedule: Q01DX011 (oral), vehicle: saline): 43 % of control
T/C (dose: 1440.0 mg/kg/injection, schedule: Q03DX004 (ip), vehicle: saline): 29 % of control
T/C (dose: 2000.0 mg/kg/injection, schedule: Q01DX011 (ip), vehicle: saline): 40 % of control
T/C (dose: 2000.0 mg/kg/injection, schedule: Q01DX011 (oral), vehicle: saline): 36 % of control
T/C (dose: 3000.0 mg/kg/injection, schedule: Q01DX011 (oral), vehicle: saline): 56 % of control
